Reference: US20090203678A1, “PHARMACEUTICAL COMPOSITIONS FOR THE TREATMENT OF PROTOZOAN PARASITIC DISEASES” (priority 2006, published 2009)
Peptide text beside a SMILES is read from it. * marks the point of attachment. Cbz = O=C(OCc1ccccc1)*; CH2F = FC*

Assays:
[1] = system: RhoA/Rho-kinase pathway; assay: G-LISA RhoA/Rho-kinase pathway activation assay in HLEC co-incubated with P. falciparum pRBC; type: cell-based, human; details: Fasudil 30 μM, 24 hours pRBC-contact co-incubation with HLEC, compared to pRBC alone, p<0.05 (FIG. 2)
Experimental: Activity of RhoA and its downstream effector Rho-kinase was assessed using G-LISA™ RhoA Activation Assay Biochem Kit purchased from Cytoskeleton (Denver, Colo.). The principle of the assay is to determine the amount of active GTP-bound RhoA extracted from cultured cells with a Rho-GTP-binding protein coated 96-well plate and final detection with immunoreagents. Briefly, HLEC were cultured in 6-well plates until 50-70% confluence as recommended by the manufacturer and exposed to P. falciparum infected erythrocytes or non infected erythrocytes at 1% of hematocrit and 50% of parasitemia. When used, Fasudil was added concomitantly with parasites at 30 μM. After 24 hours of incubation cells were washed and ice-cold lysed in phosphate buffer saline containing protease inhibitors. Cell lysates were then clarified by centrifugation at 4° C. 10,000 rpm for 2 min before measurement of protein concentrations. Cell extracts were equalized with lysis buffer to give identical protein concentrations before incubation in Rho-GTP affinity plate for 30 min at 4° C. […]
Briefly, RhoA activity in HLEC co-incubated during 24 hours with P. falciparum infected red blood cells (pRBC) or non infected red blood cells (RBC) was measured using the G-LISA™ RhoA activation kit (Cytoskeleton, Denver Colo.) as described in the Materials and Methods section.

[2] = system: P. falciparum induced endothelial permeability of HLEC monolayer; assay: Endothelial barrier integrity assay (Evans Blue diffusion through HLEC monolayer); type: cell-based, human
Experimental: In order to measure the effect of treatments on pre-exposed pRBCs endothelial cells, we developed a method based on Evans Blue diffusion through endothelial monolayer. Briefly HLEC were raised on Transwell Permeable supports (polyester membrane, 3 μm pore size, 6.5 mm diameter, Corning Incorporated Life Sciences) until confluence in M199 medium. Mature forms of 3D7 P. falciparum clone were then harvested from culture and adjusted at 1% of hematocrit and 50% of parasitemia before 4 hours co-incubation at 37° C. 5% CO2. After PRBC exposure, endothelial cell monolayers were treated 20 hours with Fasudil (1 μM or 30 μM). […] Lower compartments were finally collected for optical density analysis at 630 nm of diffused Evans Blue, using a standard microtiter plate reader (Bio-Tek™ EL311SX, Instruments Inc).
Briefly, P. falciparum cytoadherence effect on endothelial barrier function was assessed by culturing HLEC in Transwell inserts until confluence before exposing them 4 hours to mature forms of pRBC as above. The quantity of Evans Blue collected in lower compartments was markedly higher in pRBC/HLEC co-incubation conditions than in control RBC/HLEC (p<0.01) or non-exposed endothelial cell conditions (p<0.01). […]
Briefly, HLEC were cultured in Transwell inserts until confluence. […] Endothelial barrier integrity was assessed as described above.

[3] = system: P. falciparum-induced apoptosis of human lung endothelial cells (HLEC); assay: APOPercentage quantitative apoptosis assay, pRBC/HLEC co-incubation; type: cell-based; details: 24 hours pRBC exposure, purple dye pixel number (FIG. 4)
Experimental: Endothelial apoptosis was quantitatively assessed using APOPercentage™ dye purchased from Biocolor Ltd. (Belfast, Northern Ireland). The assay uses a purple-red colour dye that is selectively incorporated into apoptotic but not necrotic cells. Unilateral uptake of the dye occurs through phosphatidylserines of the outer membrane of cells that undergo apoptosis. Endothelial cells were cultured in 6-well plates until confluence before exposure to P. falciparum infected erythrocytes during 24 hours. HLEC were incubated for 1 hour with the Apopercentage dye (1/20) before co-incubation time is reached and delicately washed 3 times with PBS. Apoptosis was then quantified by Analytical Digital Photomicroscopy (ADP): for each experiment 4 representative fields of each well of cell cultures were photographed using inverted phase contrast microscope coupled with a digital camera. Images were then transferred to a computer and the level of apoptosis was expressed as a red pixel number counted by Adobe® Photoshop®.
Briefly, APOPercentage™ was used as a mean to quantify induced apoptosis and the effect of Fasudil on cell survival during pRBC/HLEC co-incubations by quantitatively assessing the […] of purple red dye by apoptotic HLEC using Analytical Digital Photomicroscopy (ADP). […]

[4] = system: NF-kappaB nuclear translocation in HLEC; assay: NF-kappaB P65 nuclear translocation (endothelial activation) in pRBC-exposed HLEC; type: cell-based, human; details: Fasudil 30 μM added concomitantly with pRBC, 6 hours, P<0.005 (FIG. 8)
Experimental: Briefly, HLEC were cultured in 8-chambers Labtek plates and exposed to pRBC during 6 hours at 1% of hematocrit and 50% of parasitemia. Rho-kinase inhibitor Fasudil was added concomitantly with pRBC at 30 μM. TNFβ at 20 ng/ml was used as a positive control of NF-kappaB nuclear translocation. Cells were then fixed and permeabilized for immunostaining with primary anti-NF-kappaB P65 subunit antibody and secondary FITC-anti-mouse IgG antibody. Nuclei were stained with diamidino-phenylindole (DAPI). After immunostaining of NF-kappaB P65 subunit, results were analysed by fluorescence microscopy and the number of activated HLEC (cells with complete but not partial migration nuclear P65 staining) per each condition (n=4) was counted (FIG. 8).

SMILES	activated RhoA concentration ([Rho-GTP], OD 490 nm) [1]	quantity of Evans Blue marker in lower compartment (OD 630 nm) ([2]; HLEC exposed 4 hours to pRBC, then 30 μM Fasudil for 20 hours, vs HLEC and pRBC, p<0.01 (FIG. 6))	decrease in apoptosis of pRBC-exposed HLEC compared to non treated cells ([3]; 1 μM Fasudil) [fold]	decrease in apoptosis of pRBC-exposed HLEC compared to non treated cells ([3]; 30 μM) [fold]	P. falciparum-induced endothelial activation (% cells with nuclear NF-kappaB P65) [4]	quantity of Evans Blue in the lower compartment (OD 630 nm) ([2]; pRBC/HLEC co-incubation in the presence of z-vad 10 μM or 100 μM (FIG. 5))
O=S(=O)(c1cccc2cnccc12)N1CCCNCC1 [Fasudil]	significant decrease	significantly lower	1.4	4.1	significantly reduces	–
COC(=O)C[C@H](NC(=O)[C@H](C)NC(=O)[C@@H](NC(=O)OCc1ccccc1)C(C)C)C(=O)CF [z-vad, Z-VAD-fmk] (Cbz-Val-Ala-Asp(OMe)-CH2F)	–	–	–	–	–	significantly reduced
